# Laboratory results taken from US20260262643A1, “HERBICIDAL BENZOXAZINES” (FMC CORPORATION, priority 2022, published 2026).
# What was measured:
# barnyardgrass [1] = assay: Test C preemergence; assay type: in vivo, Echinochloa crusgalli; settings: 0 to 100 scale (0 no effect, 100 complete control); for Plant response rating, Barnyardgrass: Preemergence, 500 g ai/ha, visual rating after 10 days; for Barnyardgrass plant response rating: Test C, preemergence, 125 g ai/ha
# How it was run: (§1)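 Test material, in non-phytotoxic solvent with surfactant, was sprayed on the soil directly after seeding (preemergence) or on young plants of 2–10 cm with one to two leaves (postemergence). Greenhouse, 10 days; 0–100 visual control scale.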
# blackgrass [2] = assay: Test C preemergence; assay type: in vivo, Alopecurus myosuroides; settings: 0 to 100 scale (0 no effect, 100 complete control); for Plant response rating, Blackgrass: Preemergence, 500 g ai/ha, visual rating after 10 days; for Blackgrass plant response rating: Test C, preemergence, 125 g ai/ha
# How it was run: as §1
# corn [3] = assay: Test C preemergence; assay type: in vivo, Zea mays; settings: 0 to 100 scale (0 no effect, 100 complete control); for Plant response rating, Corn: Preemergence, 500 g ai/ha, visual rating after 10 days; for Corn plant response rating: Test C, preemergence, 125 g ai/ha
# How it was run: as §1
# green foxtail [4] = assay: Test C preemergence; assay type: in vivo, Setaria viridis; settings: 0 to 100 scale (0 no effect, 100 complete control); for Plant response rating, Foxtail, Green: Preemergence, 500 g ai/ha, visual rating after 10 days; for Foxtail, Green plant response rating: Test C, preemergence, 125 g ai/ha
# How it was run: as §1
# kochia [5] = assay: Test C preemergence; assay type: in vivo, Bassia scoparia; settings: 0 to 100 scale (0 no effect, 100 complete control); for Plant response rating, Kochia: Preemergence, 500 g ai/ha, visual rating after 10 days; for Kochia plant response rating: Test C, preemergence, 125 g ai/ha
# How it was run: as §1
# oat, wild [6] = assay: Test C preemergence; assay type: in vivo, Avena fatua; settings: 0 to 100 scale (0 no effect, 100 complete control); for Plant response rating, Oat, Wild: Preemergence, 500 g ai/ha, visual rating after 10 days; for Oat, Wild plant response rating: Test C, preemergence, 125 g ai/ha
# How it was run: as §1
# pigweed, palmer [7] = assay: Test C preemergence; assay type: in vivo, Amaranthus palmeri; settings: 0 to 100 scale (0 no effect, 100 complete control); for Plant response rating, Pigweed, Palmer: Preemergence, 500 g ai/ha, visual rating after 10 days; for Pigweed, Palmer plant response rating: Test C, preemergence, 125 g ai/ha
# How it was run: as §1
# ragweed [8] = assay: Test C preemergence; assay type: in vivo, Ambrosia artemisiifolia; settings: 0 to 100 scale (0 no effect, 100 complete control); for Plant response rating, Ragweed: Preemergence, 500 g ai/ha, visual rating after 10 days; for Ragweed plant response rating: Test C, preemergence, 125 g ai/ha
# How it was run: as §1
# ryegrass, Italian [9] = assay: Test C preemergence; assay type: in vivo, Lolium multiflorum; settings: 0 to 100 scale (0 no effect, 100 complete control); for Plant response rating, Ryegrass, Italian: Preemergence, 500 g ai/ha, visual rating after 10 days; for Ryegrass, Italian plant response rating: Test C, preemergence, 125 g ai/ha
# How it was run: as §1
# soybean [10] = assay: Test C preemergence; assay type: in vivo, Glycine max; settings: 0 to 100 scale (0 no effect, 100 complete control); for Plant response rating, Soybean: Preemergence, 500 g ai/ha, visual rating after 10 days; for Soybean plant response rating: Test C, preemergence, 125 g ai/ha
# How it was run: as §1
# wheat [11] = assay: Test C preemergence; assay type: in vivo, Triticum aestivum; settings: 0 to 100 scale (0 no effect, 100 complete control); for Plant response rating, Wheat: Preemergence, 500 g ai/ha, visual rating after 10 days; for Wheat plant response rating: Test C, preemergence, 125 g ai/ha
# How it was run: as §1
# barnyardgrass [12] = assay: Test C postemergence; assay type: in vivo, Echinochloa crusgalli; settings: 10 days
# How it was run: as §1
# blackgrass [13] = assay: Test C postemergence; assay type: in vivo, Alopecurus myosuroides; settings: 10 days
# How it was run: as §1
# corn [14] = assay: Test C postemergence; assay type: in vivo, Zea mays; settings: 10 days
# How it was run: as §1
# green foxtail [15] = assay: Test C postemergence; assay type: in vivo, Setaria viridis; settings: 10 days
# How it was run: as §1
# kochia [16] = assay: Test C postemergence; assay type: in vivo, Bassia scoparia; settings: 10 days
# How it was run: as §1
# oat, wild [17] = assay: Test C postemergence; assay type: in vivo, Avena fatua; settings: 10 days
# How it was run: as §1
# pigweed, palmer [18] = assay: Test C postemergence; assay type: in vivo, Amaranthus palmeri; settings: 10 days
# How it was run: as §1
# ragweed [19] = assay: Test C postemergence; assay type: in vivo, Ambrosia artemisiifolia; settings: 10 days
# How it was run: as §1
# ryegrass, Italian [20] = assay: Test C postemergence; assay type: in vivo, Lolium multiflorum; settings: 10 days
# How it was run: as §1
# soybean [21] = assay: Test C postemergence; assay type: in vivo, Glycine max; settings: 10 days
# How it was run: as §1
# wheat [22] = assay: Test C postemergence; assay type: in vivo, Triticum aestivum; settings: 10 days
# How it was run: as §1
# galium = assay: Test C postemergence; assay type: in vivo, Galium aparine; settings: 10 days
# How it was run: as §1
# horseweed = assay: Test C postemergence; assay type: in vivo, Erigeron canadensis; settings: 10 days
# How it was run: as §1
# barnyardgrass [23] = assay: Test D flooded paddy test; assay type: in vivo, Echinochloa crus-galli; settings: 250 g ai/ha, applied to paddy water, visual rating after 13 to 14 days, scale 0 to 100 (0 no effect, 100 complete control)
# How it was run: (§2)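 At the 2-leaf stage, floodwater 3 cm deep received the test compound; that depth persisted throughout. Plants scored visually 13 to 14 days on, 0 (no effect) to 100 (complete control), dash indicating no result.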
# ducksalad = assay: Test D flooded paddy test; assay type: in vivo, Heteranthera limosa; settings: 250 g ai/ha, applied to paddy water, visual rating after 13 to 14 days, scale 0 to 100 (0 no effect, 100 complete control)
# How it was run: as §2
# rice = assay: Test D flooded paddy test; assay type: in vivo, Oryza sativa; settings: 250 g ai/ha, applied to paddy water, visual rating after 13 to 14 days, scale 0 to 100 (0 no effect, 100 complete control)
# How it was run: as §2
# sedge, umbrella = assay: Test D flooded paddy test; assay type: in vivo, Cyperus difformis; settings: 250 g ai/ha, applied to paddy water, visual rating after 13 to 14 days, scale 0 to 100 (0 no effect, 100 complete control)
# How it was run: as §2
# [24] = 125 g ai/ha, postemergence, 0 to 100 scale, 0 no effect, 100 complete control
# [25] = Postemergence, 500 g ai/ha, visual 0 to 100 scale (0 no effect, 100 complete control)
smiles,measurement,setting,value
CCc1ccc(-n2cnc(C(C)C)n2)cc1C(=O)N1C[C@H](C)Oc2c(C)cccc21 [Compound 240],"Plant response rating, Barnyardgrass",barnyardgrass [1],100
same,Barnyardgrass plant response rating,barnyardgrass [1],90
same,"Plant response rating, Blackgrass",blackgrass [2],90
same,Blackgrass plant response rating,blackgrass [2],60
same,"Plant response rating, Corn",corn [3],60
same,Corn plant response rating,corn [3],70
same,"Plant response rating, Foxtail, Green",green foxtail [4],100
same,"Foxtail, Green plant response rating",green foxtail [4],100
same,"Plant response rating, Kochia",kochia [5],100
same,Kochia plant response rating,kochia [5],70
same,"Plant response rating, Oat, Wild","oat, wild [6]",90
same,"Oat, Wild plant response rating","oat, wild [6]",90
same,"Plant response rating, Pigweed, Palmer","pigweed, palmer [7]",100
same,"Pigweed, Palmer plant response rating","pigweed, palmer [7]",100
same,"Plant response rating, Ragweed",ragweed [8],20
same,Ragweed plant response rating,ragweed [8],10
same,"Plant response rating, Ryegrass, Italian","ryegrass, Italian [9]",100
same,"Ryegrass, Italian plant response rating","ryegrass, Italian [9]",100
same,"Plant response rating, Soybean",soybean [10],100
same,Soybean plant response rating,soybean [10],100
same,"Plant response rating, Wheat",wheat [11],90
same,Wheat plant response rating,wheat [11],60
same,"Plant response rating, Barnyardgrass",barnyardgrass [12]; [24],40
same,"Plant response rating, Barnyardgrass",barnyardgrass [12]; [25],80
same,"Plant response rating, Blackgrass",blackgrass [13]; [24],80
same,"Plant response rating, Blackgrass",blackgrass [13]; [25],90
same,"Plant response rating, Corn",corn [14]; [24],60
same,"Plant response rating, Corn",corn [14]; [25],80
same,"Plant response rating, Foxtail, Green",green foxtail [15]; [24],80
same,"Plant response rating, Foxtail, Green",green foxtail [15]; [25],90
same,"Plant response rating, Kochia",kochia [16]; [24],30
same,"Plant response rating, Kochia",kochia [16]; [25],90
same,"Plant response rating, Oat, Wild","oat, wild [17]; [24]",60
same,"Plant response rating, Oat, Wild","oat, wild [17]; [25]",70
same,"Plant response rating, Pigweed, Palmer","pigweed, palmer [18]; [24]",90
same,"Plant response rating, Pigweed, Palmer","pigweed, palmer [18]; [25]",100
same,"Plant response rating, Ragweed",ragweed [19]; [24],50
same,"Plant response rating, Ragweed",ragweed [19]; [25],80
same,"Plant response rating, Ryegrass, Italian","ryegrass, Italian [20]; [24]",70
same,"Plant response rating, Ryegrass, Italian","ryegrass, Italian [20]; [25]",90
same,"Plant response rating, Soybean",soybean [21]; [24],100
same,"Plant response rating, Soybean",soybean [21]; [25],100
same,"Plant response rating, Wheat",wheat [22]; [24],20
same,"Plant response rating, Wheat",wheat [22]; [25],50
same,"Plant response rating, Galium",galium; [24],100
same,"Plant response rating, Galium",galium; [25],100
same,"Plant response rating, Horseweed",horseweed; [24],0
same,"Plant response rating, Horseweed",horseweed; [25],70
same,"Plant response rating, Barnyardgrass (Flood)",barnyardgrass [23],35
same,"Plant response rating, Ducksalad (Flood)",ducksalad,80
same,"Plant response rating, Rice (Flood)",rice,10
same,"Plant response rating, Sedge, Umbrella (Flood)","sedge, umbrella",100
COc1ccc(-n2cncn2)cc1C(=O)N1C[C@H](C)Oc2c(Cl)cccc21 [Compound 241],"Plant response rating, Barnyardgrass",barnyardgrass [1],100
same,Barnyardgrass plant response rating,barnyardgrass [1],90
same,"Plant response rating, Blackgrass",blackgrass [2],70
same,Blackgrass plant response rating,blackgrass [2],50
same,"Plant response rating, Corn",corn [3],70
same,Corn plant response rating,corn [3],20
same,"Plant response rating, Foxtail, Green",green foxtail [4],100
same,"Foxtail, Green plant response rating",green foxtail [4],100
same,"Plant response rating, Kochia",kochia [5],80
same,Kochia plant response rating,kochia [5],20
same,"Plant response rating, Oat, Wild","oat, wild [6]",90
same,"Oat, Wild plant response rating","oat, wild [6]",50
same,"Plant response rating, Pigweed, Palmer","pigweed, palmer [7]",100
same,"Pigweed, Palmer plant response rating","pigweed, palmer [7]",100
same,"Plant response rating, Ragweed",ragweed [8],10
same,Ragweed plant response rating,ragweed [8],10
same,"Plant response rating, Ryegrass, Italian","ryegrass, Italian [9]",90
same,"Ryegrass, Italian plant response rating","ryegrass, Italian [9]",90
same,"Plant response rating, Soybean",soybean [10],100
same,Soybean plant response rating,soybean [10],100
same,"Plant response rating, Wheat",wheat [11],90
same,Wheat plant response rating,wheat [11],60
same,"Plant response rating, Barnyardgrass",barnyardgrass [12]; [24],100
same,"Plant response rating, Barnyardgrass",barnyardgrass [12]; [25],100
same,"Plant response rating, Blackgrass",blackgrass [13]; [24],90
same,"Plant response rating, Blackgrass",blackgrass [13]; [25],100
same,"Plant response rating, Corn",corn [14]; [24],60
same,"Plant response rating, Corn",corn [14]; [25],100
same,"Plant response rating, Foxtail, Green",green foxtail [15]; [24],90
same,"Plant response rating, Foxtail, Green",green foxtail [15]; [25],90
same,"Plant response rating, Kochia",kochia [16]; [24],20
same,"Plant response rating, Kochia",kochia [16]; [25],70
same,"Plant response rating, Oat, Wild","oat, wild [17]; [24]",60
same,"Plant response rating, Oat, Wild","oat, wild [17]; [25]",90
same,"Plant response rating, Pigweed, Palmer","pigweed, palmer [18]; [24]",70
same,"Plant response rating, Pigweed, Palmer","pigweed, palmer [18]; [25]",90
same,"Plant response rating, Ragweed",ragweed [19]; [24],50
same,"Plant response rating, Ragweed",ragweed [19]; [25],90
same,"Plant response rating, Ryegrass, Italian","ryegrass, Italian [20]; [24]",90
same,"Plant response rating, Ryegrass, Italian","ryegrass, Italian [20]; [25]",100
same,"Plant response rating, Soybean",soybean [21]; [24],100
same,"Plant response rating, Soybean",soybean [21]; [25],100
same,"Plant response rating, Wheat",wheat [22]; [24],50
same,"Plant response rating, Wheat",wheat [22]; [25],90
same,"Plant response rating, Galium",galium; [24],100
same,"Plant response rating, Galium",galium; [25],100
same,"Plant response rating, Horseweed",horseweed; [24],50
same,"Plant response rating, Horseweed",horseweed; [25],90
same,"Plant response rating, Barnyardgrass (Flood)",barnyardgrass [23],50
same,"Plant response rating, Ducksalad (Flood)",ducksalad,90
same,"Plant response rating, Rice (Flood)",rice,15
same,"Plant response rating, Sedge, Umbrella (Flood)","sedge, umbrella",100
